Test results published in US20060030556A1, “Neurokinin-1 receptor antagonists for the treatment of conditions responsive to testosterone elevation, including testosterone deficiency” (SOLVAY PHARMACEUTICALS B.V., priority 2004, published 2006).

How the values were obtained:
[1] = system: NK1 receptors in the tree shrew brain; assay: Nicotine-induced emesis pilot study to establish the dose that blocks NK1 receptors in tree shrew brain; format: in vivo, tree shrews (Tupaia belangen); conditions: 30 min before s.c. (-)-nicotine 4 mg/kg, episodes counted over following 30 min, n=4 crossover
Protocol: (§1) The experiments were carried out using tree shrews (Tupaia belangen). Experimentally naive adult male tree shrews were obtained from the breeding colony at the German Primate Center (Göttingen, Germany). Animals were housed individually in air-conditioned facilities on a 12 hr/12 hr light/dark cycle with artificial illumination (lights on from 8:00 A.M. to 8:00 P.M.) and with free access to food and water (Fuchs E. “Tree shrews”, In: Poole T, (ed) UFAW handbook on the care and management of laboratory animals Oxford: Blackwell, 235-245, 1999). All treatments were performed during the day (activity period, lights on). Animal experiments were conducted in accordance with the European Communities Council Directive of Nov. 24, 1986 […] and were approved by the Government of Lower Saxony, Germany.
Animals received the NK1 receptor antagonist Compound 1 orally. A pilot study to establish the dose of Compound 1 that blocks NK1 receptors in the tree shrew brain was conducted. The methodology used is based on the ability of NK1 receptor antagonists to block nicotine-induced vomiting in musk shrews (Tattersall et al., Neuropharmacology, 34, 1697-1699, 1995). Adult tree shrews (n=4) received either vehicle or Compound 1 in different dosage orally followed 30 minutes later by subcutaneous administration of (−)-nicotine (4 mg/kg; Sigma), and the number of emetic episodes occurring during the following 30 min was recorded. Each animal received each treatment in a crossover design, with 10 days washout period between studies. Emetic episodes were abolished by treatment with 20 mg/kg per day Compound 1, whereas lower doses, i.e. 5 or 10 mg/kg per day and vehicle were ineffective.

[2] = Serum testosterone in chronic psychosocial stress with concomitant Compound 1 treatment (enzyme-immunoassay); format: in vivo, tree shrews (Tupaia belangen)
Protocol: as §1
The experimental design was as follows: Animals were divided into three experimental groups: ‘Control’, ‘Stress’ and ‘Stress+Compound 1’, each consisting of six tree shrews. The experiment consisted of three different phases and lasted for six weeks (42 days). The first experimental phase went on for 7 days, during which all animals remained undisturbed and body weight was recorded daily. The second phase of the experiment was a 7-day period, during which the animals of the Stress' and the ‘Stress+Compound 1’ group were submitted to daily psychosocial conflict. For the induction of psychosocial conflict one naive male was introduced into the cage of a socially experienced male. After establishment of a clear dominant/subordinate relationship, the two animals were separated by a wire mesh barrier. […]
For determination of testosterone, 100 μl serum was two times extracted with 1 ml of diethylether by vortexing for 10 min. […] 50 μl aliquots of reconstituted extracts were then measured for concentrations of testosterone by enzyme-immunoassay as described by Kraus et al. (Physiol. Behav. 66: 855-861, 1999). […]
Serum testosterone levels were measured from blood samples collected before perfusing the animals. […]

[3] = 20 mg/kg/day oral for 28 days, p<0.05

O=C(c1cccc(C(F)(F)F)c1)N1C[C@H]2CC[C@H](N3CCOCC3)CN2C[C@H]1Cc1c[nH]c2ccccc12 [Compound 1]
emetic episodes after (-)-nicotine ([1]; 5 mg/kg per day oral): ineffective
emetic episodes after (-)-nicotine ([1]; 10 mg/kg per day oral): ineffective
emetic episodes after (-)-nicotine ([1]; 20 mg/kg per day oral): abolished
serum testosterone concentrations compared to 'Control' animals [2, 3]: two fold increase
testosterone levels compared to the 'Stress' group [2, 3]: six times higher
Serum testosterone concentration ([2]; Stress + Compound 1 group, 20 mg/kg/day oral for 28 days during psychosocial stress, n = 6, p<0.05 versus Control and versus Stress): 6.45 ± 2.00 *# (n = 6) ng/ml
